In patent US20230212171A1, “ALLOSTERIC EGFR INHIBITORS AND METHODS OF USE THEREOF” (Dana-Farber Cancer Institute, Inc., priority 2020, published 2023):
Structures can show the parent of a compound that is named as a salt. Where two headings read alike, the source gives them in different places.

Assays:
[1] = target: EGFR mutant L858R/T790M Ba/F3 cells (Homo sapiens, UniProt P00533, T790M/L858R, cells depend on it); assay: Ba/F3 cell proliferation model (Cell Titer Glo), EGFR L858R/T790M; assay type: cell-based, murine; conditions: 72 hours
Text: (§1) The EGFR mutant L858R and L858R/T790M Ba/F3 cells have been previously described (Zhou, W., et al. Nature 462, 2009, 1070-1074). All cell lines were maintained in RPMI 1640 (Cellgro; Mediatech Inc., Herndon, CA) supplemented with 10% FBS, 100 units/mL penicillin, 100 units/mL streptomycin. The EGFR I941R mutation was introduced via site directed mutagenesis using the Quick Change Site-Directed Mutagenesis kit (Stratagene; La Jolla, CA) according to the manufacturer’s instructions. All constructs were confirmed by DNA sequencing. The constructs were shuttled into the retroviral vector JP1540 using the Cre-recombination system (Agilent Technologies, Santa Clara, CA). Ba/F3 cells were then infected with retrovirus per standard protocols, as described previously (Zhou, et al, Nature 2009). Stable clones were obtained by selection in puromycin (2 µg/ml).
(§2) Growth and inhibition of growth was assessed by the Cell Titer Glo assay (Promega, Madison, WI) and was performed according to the manufacturer’s instructions. The Cell Titer Glo assay is a luminescence-based method used to determine the number of viable cells based on quantitation of the ATP present, which is directly proportional to the amount of metabolically active cells present. Ba/F3 cells of different EGFR genotypes were exposed to compounds as a single agent or in combination with 1 µg/mL cetuximab for 72 hours and the number of cells used per experiment was determined empirically as has been previously established (Zhou, et al., Nature 2009). All experimental points were set up in triplicates in 384-well plates and all experiments were repeated at least three times. […] The curves were fitted using a non-linear regression model with a sigmoidal dose response.

EGFR L858R/T790M = EGFR L858R/T790M (Homo sapiens, UniProt P00533, L858R/T790M); assay: HTRF-based EGFR biochemical assay (L858R/T790M); conditions: enzyme 0.02 nM, ATP 100 µM, 30 min preincubation
Description: (§3) EGFR biochemical activity measurements were carried out using the homogeneous time-resolved fluorescence (HTRF) assay (Cisbio). Inhibitors and DMSO normalizations were first dispensed to empty black low-volume 384-well plates (Corning) with D300 digital liquid dispenser (HP). All reactions were carried out at room temperature and solutions were added to plates with a Multidrop Combi Reagent Dispenser (ThermoFisher). The reaction mixture (10 µL final volume) contained 1 µM tyrosine kinase peptide-biotin substrate and mutant EGFR in a reaction buffer (50 mM HEPES pH 7.0, 5 mM MgCl2, 1 mM MnCl2, 0.01% BSA, 2 mM TCEP, 0.1 mM NaVO4). Enzyme concentrations were adjusted to accommodate varying kinase activities (L858R 0.1 nM, L858R/T790M 0.02 nM). Enzyme reaction solution (2× concentrations, 5 µL) was added to 384-well plates containing compounds and incubated for 30 mins. Enzyme reactions were initiated with the addition of 5 µL of ATP to a final concentration of 100 µM and reacted for 20 mins. Reactions were quenched with the addition of 10 µL of phospho-tyrosine antibody-Europium(III) cryptate (1-to-180 volume ratio) and Streptavidin-XL665 (46.7 nM) in EDTA-containing detection buffer, then incubated at room temperature for 1 hour, and read with a PHERAstar plate reader (excitation = 337 nm, emission = 620 nm and 665 nm). IC50 values were determined by inhibition curves (11-point curves from 1.0 µM to 0.130 nM or 23-point curves from 1.0 µM to 0.130 pM) in triplicate with non-linear least squares fit in GraphPad Prism 7.0d.

EGFR L858R = EGFR L858R (Homo sapiens, UniProt P00533, L858R); assay: HTRF-based EGFR biochemical assay (L858R); conditions: enzyme 0.1 nM, ATP 100 µM, 30 min preincubation
Description: as §3

[2] = target: EGFR mutant L858R Ba/F3 cells (Homo sapiens, UniProt P00533, L858R, cells depend on it); assay: Ba/F3 cell proliferation model (Cell Titer Glo), EGFR L858R; assay type: cell-based, murine; conditions: single agent, 72 hours; read-out: Cell ICso BaF3 EGFR L858R
Text: as §1, §2

[3] = single agent, read-out: Cell IC50 BaF3 EGFR L858R/T790M

Sequence of EGFR mutant L858R/T790M Ba/F3 cells (P00533 whole entry T790M/L858R): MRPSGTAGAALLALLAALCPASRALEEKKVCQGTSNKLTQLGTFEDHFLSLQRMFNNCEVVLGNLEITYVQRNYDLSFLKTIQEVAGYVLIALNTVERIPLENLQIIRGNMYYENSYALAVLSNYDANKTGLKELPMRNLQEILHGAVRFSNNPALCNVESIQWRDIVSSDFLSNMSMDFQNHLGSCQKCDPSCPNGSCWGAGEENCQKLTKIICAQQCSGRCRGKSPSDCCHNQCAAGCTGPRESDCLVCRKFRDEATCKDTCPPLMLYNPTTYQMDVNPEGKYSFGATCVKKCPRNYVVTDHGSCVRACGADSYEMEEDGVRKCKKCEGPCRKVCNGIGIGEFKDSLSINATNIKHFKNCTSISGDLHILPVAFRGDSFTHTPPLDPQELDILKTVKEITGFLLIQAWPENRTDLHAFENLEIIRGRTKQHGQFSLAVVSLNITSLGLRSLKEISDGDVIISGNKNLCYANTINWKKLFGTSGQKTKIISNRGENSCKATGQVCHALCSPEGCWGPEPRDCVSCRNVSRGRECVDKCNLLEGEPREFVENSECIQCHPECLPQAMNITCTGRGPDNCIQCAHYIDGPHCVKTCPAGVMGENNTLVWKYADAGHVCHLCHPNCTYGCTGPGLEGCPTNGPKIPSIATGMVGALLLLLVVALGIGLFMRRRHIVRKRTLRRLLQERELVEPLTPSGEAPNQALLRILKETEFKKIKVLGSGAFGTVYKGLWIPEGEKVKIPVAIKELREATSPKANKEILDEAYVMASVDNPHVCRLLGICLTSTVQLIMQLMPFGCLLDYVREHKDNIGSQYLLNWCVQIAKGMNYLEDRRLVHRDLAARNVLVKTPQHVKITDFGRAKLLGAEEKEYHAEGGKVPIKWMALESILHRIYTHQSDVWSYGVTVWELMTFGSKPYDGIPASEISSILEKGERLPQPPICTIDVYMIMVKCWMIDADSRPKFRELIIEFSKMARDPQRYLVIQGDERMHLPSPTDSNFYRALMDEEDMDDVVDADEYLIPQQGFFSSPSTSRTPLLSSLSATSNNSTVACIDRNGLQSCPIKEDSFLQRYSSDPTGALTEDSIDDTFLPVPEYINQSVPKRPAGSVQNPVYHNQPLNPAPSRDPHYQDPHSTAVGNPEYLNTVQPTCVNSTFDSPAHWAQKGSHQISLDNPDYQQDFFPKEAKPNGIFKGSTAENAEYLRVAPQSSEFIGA
Sequence of EGFR mutant L858R Ba/F3 cells (P00533 whole entry L858R): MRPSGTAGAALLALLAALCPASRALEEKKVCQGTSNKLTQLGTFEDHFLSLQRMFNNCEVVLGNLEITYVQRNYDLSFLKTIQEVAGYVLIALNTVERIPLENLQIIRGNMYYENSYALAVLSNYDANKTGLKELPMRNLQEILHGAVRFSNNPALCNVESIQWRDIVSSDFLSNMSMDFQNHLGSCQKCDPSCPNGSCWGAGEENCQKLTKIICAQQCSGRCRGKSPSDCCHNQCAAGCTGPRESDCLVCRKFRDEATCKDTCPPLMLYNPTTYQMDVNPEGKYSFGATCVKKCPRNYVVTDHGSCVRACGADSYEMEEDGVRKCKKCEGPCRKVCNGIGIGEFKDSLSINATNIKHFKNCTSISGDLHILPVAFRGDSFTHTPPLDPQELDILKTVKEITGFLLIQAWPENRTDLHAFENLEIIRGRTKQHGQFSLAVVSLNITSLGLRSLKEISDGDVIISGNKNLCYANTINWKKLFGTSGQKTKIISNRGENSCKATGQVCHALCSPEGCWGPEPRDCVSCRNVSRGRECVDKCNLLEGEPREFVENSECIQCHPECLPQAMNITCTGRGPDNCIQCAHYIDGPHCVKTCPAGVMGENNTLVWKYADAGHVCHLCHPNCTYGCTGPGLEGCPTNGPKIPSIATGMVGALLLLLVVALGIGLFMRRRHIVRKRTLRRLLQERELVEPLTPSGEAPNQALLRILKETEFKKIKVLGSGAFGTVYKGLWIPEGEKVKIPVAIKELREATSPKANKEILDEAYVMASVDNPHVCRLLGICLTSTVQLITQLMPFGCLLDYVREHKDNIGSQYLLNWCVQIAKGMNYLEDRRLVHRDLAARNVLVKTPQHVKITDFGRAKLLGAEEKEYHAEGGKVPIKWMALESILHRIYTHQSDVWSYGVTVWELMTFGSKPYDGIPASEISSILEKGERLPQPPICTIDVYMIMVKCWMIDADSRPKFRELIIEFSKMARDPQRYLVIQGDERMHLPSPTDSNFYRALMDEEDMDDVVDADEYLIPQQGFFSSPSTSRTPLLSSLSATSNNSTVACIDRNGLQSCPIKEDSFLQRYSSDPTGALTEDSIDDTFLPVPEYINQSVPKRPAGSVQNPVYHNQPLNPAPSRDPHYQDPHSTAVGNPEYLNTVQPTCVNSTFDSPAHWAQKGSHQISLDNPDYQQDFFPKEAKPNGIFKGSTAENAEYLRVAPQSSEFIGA
Sequence of EGFR L858R/T790M (P00533 25-1210 T790M/L858R): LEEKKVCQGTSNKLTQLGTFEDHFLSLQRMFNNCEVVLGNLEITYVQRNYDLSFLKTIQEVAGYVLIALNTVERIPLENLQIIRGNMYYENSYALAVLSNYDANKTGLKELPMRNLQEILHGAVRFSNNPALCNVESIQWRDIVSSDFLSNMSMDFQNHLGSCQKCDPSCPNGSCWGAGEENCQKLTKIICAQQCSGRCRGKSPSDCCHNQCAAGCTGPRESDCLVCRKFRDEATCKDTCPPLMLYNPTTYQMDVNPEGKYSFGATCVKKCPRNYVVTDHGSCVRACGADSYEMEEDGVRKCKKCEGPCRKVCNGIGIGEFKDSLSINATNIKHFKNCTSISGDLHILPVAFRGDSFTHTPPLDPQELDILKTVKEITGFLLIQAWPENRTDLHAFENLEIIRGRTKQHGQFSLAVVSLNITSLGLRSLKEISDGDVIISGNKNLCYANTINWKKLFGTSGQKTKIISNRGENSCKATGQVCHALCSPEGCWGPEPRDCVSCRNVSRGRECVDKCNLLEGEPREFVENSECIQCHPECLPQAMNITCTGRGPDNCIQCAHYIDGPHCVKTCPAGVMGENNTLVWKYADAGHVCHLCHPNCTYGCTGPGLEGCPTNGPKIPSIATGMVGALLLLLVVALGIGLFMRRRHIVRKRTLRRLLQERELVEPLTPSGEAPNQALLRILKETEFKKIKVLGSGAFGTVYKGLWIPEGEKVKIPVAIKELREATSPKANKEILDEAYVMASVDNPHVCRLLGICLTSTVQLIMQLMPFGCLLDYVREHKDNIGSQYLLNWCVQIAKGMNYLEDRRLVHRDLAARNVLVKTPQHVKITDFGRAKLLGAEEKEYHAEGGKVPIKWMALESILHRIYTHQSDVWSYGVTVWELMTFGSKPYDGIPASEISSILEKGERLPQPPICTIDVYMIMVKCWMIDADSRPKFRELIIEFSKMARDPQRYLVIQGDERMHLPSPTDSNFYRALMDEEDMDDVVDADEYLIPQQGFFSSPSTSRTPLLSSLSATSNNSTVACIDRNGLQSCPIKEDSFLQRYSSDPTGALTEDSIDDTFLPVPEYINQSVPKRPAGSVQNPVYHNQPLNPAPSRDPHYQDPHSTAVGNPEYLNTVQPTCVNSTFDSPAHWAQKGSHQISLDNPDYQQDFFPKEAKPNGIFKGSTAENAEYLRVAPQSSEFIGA
Sequence of EGFR L858R (P00533 25-1210 L858R): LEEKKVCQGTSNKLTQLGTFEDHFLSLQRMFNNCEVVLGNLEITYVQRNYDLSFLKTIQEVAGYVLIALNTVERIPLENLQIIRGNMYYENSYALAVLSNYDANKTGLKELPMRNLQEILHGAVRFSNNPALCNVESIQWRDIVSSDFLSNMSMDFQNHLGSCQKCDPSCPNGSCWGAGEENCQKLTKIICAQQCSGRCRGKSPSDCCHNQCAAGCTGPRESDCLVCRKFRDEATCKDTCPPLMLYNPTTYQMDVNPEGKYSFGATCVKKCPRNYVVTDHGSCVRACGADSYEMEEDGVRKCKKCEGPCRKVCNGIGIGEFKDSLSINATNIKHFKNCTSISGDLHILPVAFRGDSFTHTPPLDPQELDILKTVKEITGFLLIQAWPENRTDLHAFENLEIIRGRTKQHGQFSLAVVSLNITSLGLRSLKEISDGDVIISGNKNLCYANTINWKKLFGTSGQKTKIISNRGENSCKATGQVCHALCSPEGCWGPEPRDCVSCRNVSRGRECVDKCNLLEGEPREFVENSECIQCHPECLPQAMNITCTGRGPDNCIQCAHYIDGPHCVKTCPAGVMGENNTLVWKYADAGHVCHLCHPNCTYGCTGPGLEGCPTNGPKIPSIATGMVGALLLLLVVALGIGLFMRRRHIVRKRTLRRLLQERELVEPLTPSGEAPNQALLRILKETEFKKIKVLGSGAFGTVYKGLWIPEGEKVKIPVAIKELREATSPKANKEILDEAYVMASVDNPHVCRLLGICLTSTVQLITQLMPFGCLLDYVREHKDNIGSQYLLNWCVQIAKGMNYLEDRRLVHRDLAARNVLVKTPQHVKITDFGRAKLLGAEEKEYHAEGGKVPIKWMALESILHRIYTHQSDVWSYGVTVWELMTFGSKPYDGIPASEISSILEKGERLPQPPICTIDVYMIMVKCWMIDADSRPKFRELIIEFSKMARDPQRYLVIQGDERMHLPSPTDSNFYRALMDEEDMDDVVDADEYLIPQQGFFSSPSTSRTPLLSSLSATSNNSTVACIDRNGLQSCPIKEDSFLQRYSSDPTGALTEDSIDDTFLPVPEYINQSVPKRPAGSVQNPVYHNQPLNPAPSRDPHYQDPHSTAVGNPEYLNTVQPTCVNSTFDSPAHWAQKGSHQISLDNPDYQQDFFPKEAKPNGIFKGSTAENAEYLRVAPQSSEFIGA

Compound | GI50 [1, 3] [nM] | IC50 (EGFR L858R/T790M) [nM] | IC50 (EGFR L858R) [nM] | GI50 [2] [nM] | GI50 ([1]; in combination with 1 µg/mL cetuximab, read-out: Cell IC50 BaF3 EGFR L858R/T790M (+ cetux.)) [nM]
CN1CCC(c2ccc(-c3ccc4c(c3)N(C)C(=O)N(C(c3nc5ccccc5[nH]3)c3cc(F)ccc3O)C4)cc2)CC1 (stereo not drawn) [Compound 017, 3-[1H-benzimidazol-2-yl-(5-fluoro-2-hydroxy-phenyl)methyl]-1-methyl-7-[4-(1-methyl-4-piperidyl)phenyl]-4H-quinazolin-2-one;dihydrochloride] | 1090 |  |  |  | 
CN1CCC(c2ccc(-c3cc4ccn([C@H](c5nc6ccccc6[nH]5)c5cc(F)ccc5O)c(=O)c4s3)cc2)CC1 (single isomer, unassigned) [Compound 016] |  | 17 | 41 |  | 
CN1CCC(c2ccc(-c3cc4ncn(C(C(=O)Nc5nccs5)c5ccccc5)c(=O)c4s3)cc2)CC1 (stereo not drawn) [Compound 003, 2-(6-(4-(1-Methylpiperidin-4-Yl)Phenyl)-4-Oxothieno[3,2-d)Pyrimidin-3(4H)-Yl)-2-Phenyl-N-(Thiazol-2-Yl)Acetamide] | 890 | 29 | 31 | 850 | 
CN1CCC(c2ccc(-c3cc4ncn(C(c5ccccc5)c5nc6ccccc6[nH]5)c(=O)c4s3)cc2)CC1 (stereo not drawn) [Compound 004, 3-((1H-benzo[d]imidazol-2-yl)(phenyl)methyl)-6-(4-(1-methylpiperidin-4-yl)phenyl)thieno[3,2-d]pyrimidin-4(3H)-one] | 3680 | > 100 | > 100 | 4570 | 
CN1CCC(c2ccc(-c3cc4ccn([C@@H](c5nc6ccccc6[nH]5)c5cc(F)ccc5O)c(=O)c4s3)cc2)CC1 (single isomer, unassigned) [Compound 015] | 10 | 0.2 | 0.9 | 40 | 
CN1CCC(c2ccc(-c3cc4c(s3)CN(C(c3nc5ccccc5[nH]3)c3cc(F)ccc3O)C4=O)cc2)CC1 (stereo not drawn) [Compound 013, 5-[1H-Benzimidazol-2-Yl-(5-Fluoro-2-Hydroxy-Phenyl)Methyl]-2-[4-(1-Methyl-4-Piperidyl)Phenyl]-6H-Thieno[2,3-c]Pyrrol-4-One;Dihydrochloride] | 750 | 14 | 9 | 1010 | 
CN1CCC(c2ccc(-c3cc4c(=O)n(C(c5nc6ccccc6[nH]5)c5cc(F)ccc5O)ccc4s3)cc2)CC1 (stereo not drawn) [Compound 010, 5-[1H-benzimidazol-2-yl-(5-fluoro-2-hydroxy-phenyl)methyl]-2-[4-(1-methyl-4-piperidyl)phenyl]thieno[3,2-c]pyridin-4-one;dihydrochloride] | 240 | 0.8 | 2 | 1080 | 
[2H]C(c1nc2ccccc2[nH]1)(c1cc(F)ccc1O)n1ccc2cc(-c3ccc(C4CCN(C)CC4)cc3)sc2c1=O (stereo not drawn) [Compound 024, 6-((1H-Benzo[d]Imidazol-2-yl)(5-Fluoro-2-Hydroxyphenyl)Methyl-d)-2-(4-(1-Methylpiperidin-4-Yl)Phenyl)Thieno[2,3-c]Pyridin-7(6H)-One] |  | 0.7 | 2 |  | 
CN1CCC(c2ccc(-c3cc4c(F)cn(C(C(=O)Nc5nccs5)c5cc(F)ccc5O)c(=O)c4s3)cc2)CC1 (stereo not drawn) [Compound 019, 2-(4-Fluoro-2-(4-(1-Methylpiperidin-4-Yl)Phenyl)-7-Oxothieno[2,3-c]Pyridin-6(7H)-Yl)-2-(5-Fluoro-2-Hydroxyphenyl)-N-(Thiazol-2-Yl)Acetamide] |  | 0.5 | 0.7 |  | 
CN1CCC(c2ccc(-c3cc4c(s3)C(=O)N(C(c3nc5ccccc5[nH]3)c3cc(F)ccc3O)C4)cc2)CC1 (stereo not drawn) [Compound 014, 5-[1H-benzimidazol-2-yl-(5-fluoro-2-hydroxy-phenyl)methyl]-2-[4-(1-methyl-4-piperidyl)phenyl]-4H-thieno[2,3-c]pyrrol-6-one;dihydrochloride] | 1180 | 21 | 21 | 1330 | 
CN1CCC(c2ccc(-c3cc4ccn(C(c5ccccc5)c5nc6ccccc6[nH]5)c(=O)c4s3)cc2)CC1 (stereo not drawn) [Compound 008, 6-[1H-benzimidazol-2-yl(phenyl)methyl]-2-[4-(1-methyl-4-piperidyl)phenyl]thieno[2,3-c]pyridin-7-one;hydrochloride] | 1670 | 29 | 27 | 1870 | 
CN1CCC(c2ccc(-c3cc4ccn(C(C(=O)Nc5nccs5)c5ccccc5)c(=O)c4s3)cc2)CC1 (stereo not drawn) [Compound 007, 2-[2-[4-(1-methyl-4-piperidyl)phenyl]-7-oxo-thieno[2,3-c]pyridin-6-yl]-2-phenyl-N-thiazol-2-yl-acetamide;hydrochloride] | 570 | 0.6 | 3 | 360 | 
CN1CCC(c2ccc(-c3cc4c(=O)n(C(c5ccccc5)c5nc6ccccc6[nH]5)ccc4s3)cc2)CC1 (stereo not drawn) [Compound 006] | 3550 | 19 | 21 | 3130 | 
CN1CCC(c2ccc(-c3cc4c(F)cn(C(c5nc6ccccc6[nH]5)c5cc(F)ccc5O)c(=O)c4s3)cc2)CC1 (stereo not drawn) [Compound 020, 6-((1H-Benzo[d]Imidazol-2-Yl)(5-Fluoro-2-Hydroxyphenyl)Methyl)-4-Fluoro-2-(4-(1-methylpiperidin-4-Yl)Phenyl)Thieno[2,3-c]Pyridin-7(6H)-One] |  | 0.2 | 0.2 |  | 
CN1CCC(c2ccc(-c3cc4ccn(C(c5ccccc5)c5cc6ccccc6[nH]5)c(=O)c4s3)cc2)CC1 (stereo not drawn) [Compound 025, 6-((1H-Indol-2-Yl)(Phenyl)Methyl)-2-(4-(1-Methylpiperidin-4-Yl)Phenyl)Thieno[2,3-c]Pyridin-7(6H)-One] |  | 7 | 9 |  | 
CN1CCC(c2ccc(-c3nc4ccn(C(c5nc6ccccc6[nH]5)c5cc(F)ccc5O)c(=O)c4s3)cc2)CC1 (stereo not drawn) [Compound 023, 5-((1H-Benzo[d]imidazol-2-yl)(5-fluoro-2-hydroxyphenyl)methyl)-2-(4-(1-methylpiperidin-4-yl)phenyl)thiazolo[5,4-c]pyridin-4(5H)-one] |  | 3 | 7 |  | 
CN1CCC(c2ccc(-c3nc4c(s3)C(=O)N(C(c3nc5ccccc5[nH]3)c3cc(F)ccc3O)CC4)cc2)CC1 (stereo not drawn) [Compound 022, 5-((1H-Benzo[d]imidazol-2-yl)(5-fluoro-2-hydroxyphenyl)methyl)-2-(4-(1-methylpiperidin-4-yl)phenyl)-6,7-dihydrothiazolo[5,4-c]pyridin-4(5H)-one] |  | 11 | 12 |  | 
CN1CCC(c2ccc(-c3cc4c(=O)n(C(C(=O)Nc5nccs5)c5ccccc5)cnn4c3)cc2)CC1 (stereo not drawn) [Compound 001, 2-(6-(4-(1-Methylpiperidin-4-Yl)Phenyl)-4-Oxopyrrolo[2,1-f][1,2,4]-Triazin-3(4H)-Yl)-2-Phenyl-N-(Thiazol-2-yl)Acetamide;Hydrochloride] | 2300 | 1 | 5 |  | 90
CN1CCC(c2ccc(-c3nc4c(s3)C(=O)N(C(C(=O)Nc3nccs3)c3cc(F)ccc3O)CC4)cc2)CC1 (stereo not drawn) [Compound 021, 2-(5-Fluoro-2-hydroxyphenyl)-2-(2-(4-(1-methylpiperidin-4-yl)phenyl)-4-oxo-6,7-dihydrothiazolo[5,4-c]pyridin-5(4H)-yl)-N-(thiazol-2-yl)acetamide] |  | 0.6 | 2 |  | 
